Results as given in PubChem BioAssay AID179 (DTP/NCI, 2004).
Several values for one entry are separate records, joined by “and”; a condition that tells them apart may be missing. Equal values may be shown once. Activity calls are given as the source filed them.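 The calls were made as follows: active = compounds giving half or more protection of infected cells from virus-caused growth loss, again on retest; inactive = the rest.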

System: CEM cells HIV-1 protection, formazan growth assay
Test: NCI AIDS Antiviral Assay
Details: for IC50: measured here: growth of uninfected CEM cells
Procedure, shortened: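 Protection of CEM cells against HIV-1 measured as cell growth via soluble formazan read-out, with five concentrations tested on both infected and uninfected cells; failure to protect may reflect toxicity.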

SMILES | EC50 [µM] | IC50 | outcome
O=c1cc(-c2ccccc2)oc2ccccc12 | > 135 | 75.9 µM | 
CCOC(=O)C(C)c1nc2ccc(C(F)(F)F)cc2[nH]c1=O (configuration not stated) | > 200 | 110 µM | 
CN(C)C1(C(=O)O)CC1 | > 200 | > 200 µM | 
CC(=O)c1cc([N+](=O)[O-])ccc1OCC(=O)O |  |  | inactive
N/C(=N\N=C\c1cc(I)cc(I)c1O)NO | > 200 | 10.5 µM | 
Cc1cc2c(cc1C)[n+](=O)c(C(=O)C/C(=N/NC(=O)CC#N)C(=O)Nc1ccccc1C(F)(F)F)c(C)n2[O-] | > 13.2 | > 13.2 µM | 
CCC[CH2][Sn]1([CH2]CCC)[O]CC(CN2CCOCC2)[O]1 (configuration not stated) | > 4.57 | 0.295 µM | 
CCOC(=O)C(NC(=O)CC(C)C)(N1CCN(c2cc3c(cc2F)c(=O)c(C(=O)O)cn3C2CC2)CC1)C(F)(F)F (configuration not stated) | > 200 | 1.91 µM | 
O=C1CN(C(=O)c2ccccc2)Cc2[nH]c3ccccc3c21 |  |  | inactive
COc1cc2c(cc1OC)C(CCl)c1cc(OC)c(OC)cc1C=C2 | > 100 | > 100 µM | 
CCC1CCN=C(NS(=O)(=O)c2cc(C)c(Cl)cc2S)N1 (configuration not stated) | > 200 | 39.8 µM | 
CC1(C)N=C(N)N=C(N)N1c1cccc(N)c1.[Sn] |  |  | inactive
Cc1nn(C(=O)CC(=O)Nc2ccccc2Cl)c(C)c1N=Nc1ccccc1Cl |  |  | inactive
COC(=O)C(C(=O)C(=O)Nc1ccccc1C)c1nc2ccc([N+](=O)[O-])cc2[nH]c1=O (configuration not stated) |  |  | inactive
COc1ccc(C2CCC(=O)CC2C(=O)O)cc1 (configuration not stated) | > 417 | > 417 µM | 
O=C(CCN(C(=O)O)S(=O)(=O)c1ccc(NC(=O)c2ccccc2)cc1)NC1CCCCC1 | > 525 | > 525 µM | 
Nc1nc(=S)[nH]c(C(=O)Nc2ccc(Cl)c(Cl)c2)c1-c1ccc(Cl)cc1 | > 43.7 | > 43.7 µM | 
COC(=O)c1ccc(CCC2=CC(=O)C(Br)=CC2=O)cc1 | > 200 | 9.33 µM | 
C=CC1(C)CCC(C(C)C(=O)C(C=C(C)C)OC(C)=O)C12C(=O)Oc1ccccc1C2=O (configuration not stated) | > 30.9 | 29.5 µM | 
O=C1[O][Bi]23[O]C(=O)C([O]2)C1[O]3 | > 36.3 | > 36.3 µM | 
CCOC(=O)Nc1ccc2nc(N3CCCCCC3)sc2c1 | > 58.9 | 1.02 µM | 
O=C(Nc1ccc(Br)cc1)c1cc(Br)ccc1O | > 200 | 4.37 µM | 

SMILES | EC50 [µM] | IC50 | outcome
C#Cc1c(C)c(/C=C/C(C)=C/C(=O)OC)n(C)c1C |  |  | inactive
Cc1nn(C(=O)c2ccncc2)c2c1C(c1ccc([N+](=O)[O-])cc1)SC(N)=N2 (configuration not stated) | > 200 | 126 µM | 
Cc1cc(Br)cc(C)c1NC(=O)C(=O)C(C(=O)c1ccc(Cl)c(Cl)c1)C1OC(=O)c2ccccc21 (configuration not stated) | > 49 | 6.76 µM | 
CC(C)(C)NNc1c([N+](=O)[O-])cnn(-c2ccccc2)c1=O | > 49 | 0.251 µM | 
Cc1ccc(S(=O)(=O)N/N=C(\CCN2CCCC2)CC(c2ccccc2)c2c(O)c3ccccc3oc2=O)cc1 (configuration not stated) | > 12 | > 12 µM | 
COc1ccc(CCN2C(=O)C(=O)c3ccccc32)cc1OC | > 83.2 | 47.9 µM | 
CCOP(=O)(OCC)C(Cc1ccc(OC)c(OC)c1)N=C(c1ccccc1)c1ccccc1 (configuration not stated) | > 200 | 29.5 µM | 
COCC1=C(O)C=C2Oc3c(C(C)=O)c(O)c(C)c(O)c3[C@@]2(C)C1=O | > 100 | 12 µM | 
COc1ccc(OCC(=O)O)c2c1CCCC2=O |  |  | inactive
CC1OC(O[C@H]2/C=C/C=C/C=C/C=C/C=C/C=C/C=C/[C@H](C)[C@@H](O)[C@@H](C)[C@H](C)OC(=O)C[C@H](O)C[C@H](O)CC[C@@H](O)[C@H](O)C[C@H](O)C[C@]3(O)C[C@H](O)[C@@H](C(=O)O)[C@H](C2)O3)C(O)C(N)C1O (some centres not stated) | > 4.9 |  | 
CO[C@H](C(=O)O[C@H]1C(=O)N2CCC3CCC1C32C)c1ccccc1 (some centres not stated) | > 759 | 501 µM | 
COc1cccc(/C=C(\C#N)C(=O)c2ccccc2)c1 | > 97.7 | > 97.7 µM | 
Cn1c2c(c3nc(N)nc(N)c3c1=O)CCc1ccccc1-2 | > 200 | 12.9 µM | 
CN(C)CCCN1C(=S)N(CCCN(C)C)c2c3cc(O)ccc3nc3c([N+](=O)[O-])ccc1c23 | > 2 | 0.417 µM | 
CCCCCCCCCCCCCCCC(=O)Nc1nc(=O)n(C2CCC(COP(=O)(O)OCC3OC(n4cc(C)c(=O)[nH]c4=O)CC3N=[N+]=[N-])O2)cc1C (configuration not stated) | 0.363 | 115 µM | 
CC1=C(C/C=C/c2ccccc2)C(=O)c2ccccc2C1=O |  |  | inactive
CN(C)CCCNC(=O)c1cc(NC(=O)c2cc(NC(=O)[C@H]3C[C@@H]3C(=O)Nc3cc(C(=O)Nc4cc(C(=O)NCCCN(C)C)n(C)c4)n(C)c3)cn2C)cn1C |  |  | inactive
Cc1ccc2c(c1)sc1nnc(Cl)n12 | > 200 | > 200 µM | 
C1CSCCCSCCCSCCCSCCCSC1 | > 14.1 | > 14.1 µM | 
CC(=O)NC(CCCCNC(=O)OC(C)(C)C)C(=O)O (configuration not stated) | > 200 | > 200 µM | 
CC(=O)Nc1ccc(/C=C2\SC(=S)N(/C=C3/C(=O)N(c4ccccc4)N=C3C)C2=O)cc1 | > 200 | 72.4 µM | 
C=CCc1cc(C=C(C#N)C#N)cc(OC)c1O | > 200 | 97.7 µM | 

SMILES | EC50 [µM] | IC50 | outcome
Cc1nn(C(=O)c2ccccc2O)c2c1C(c1ccc3ccccc3c1O)SC(N)=N2 (configuration not stated) | > 2 | 1.38 µM | 
COc1ccccc1/C=C/C(=O)/C=C/c1ccccc1O | > 79.4 | 1.15 µM | 
Cc1ccc(C2(O)c3ccccc3C(=O)N(C)C2(O)c2ccc(C)cc2)cc1 (configuration not stated) | > 200 | 12.9 µM | 
CN(c1ccccc1Cl)S(=O)(=O)c1ccccc1 | > 200 | 70.8 µM | 
COC1OC(COC(C)=O)C(OC(C)=O)C(OC(C)=O)C1NC(=O)N(CCCl)N=O (configuration not stated) | > 288 | 91.2 µM and > 209 µM | 
COc1ccc(-c2cc(-c3ccc(C)cc3)n(C3OC(COC(C)=O)C(OC(C)=O)C(OC(C)=O)C3OC(C)=O)c(=S)c2C#N)cc1 (configuration not stated) | > 200 | > 200 µM | 
CCOP(=O)(OCC)c1ccc[nH]1 | > 200 | > 200 µM | 
COc1ccc(-c2cc(C(=O)Nc3cccc(C(F)(F)F)c3)[nH]c(=S)n2)cc1 | > 162 | > 162 µM | 
O=C(O)c1[nH]c(=O)[nH]c(=O)c1C(=O)O | > 200 | > 200 µM | 
Cc1cc2c(cc1Cl)SC(C(=O)c1ccc(Cl)cc1)=NS2(=O)=O |  |  | inactive
CCOc1ncnc2c1ncn2C1OC(CO)CC1F (configuration not stated) | > 178 | > 178 µM | 
CCOC1(OCC)N=C(N)C2(C#N)C3(C(=O)N(C(C)C)N=C3C)C12C#N (configuration not stated) | > 200 | 166 µM | 
COc1cccc(OC)c1C(=O)OCc1ccccc1 | > 95.5 | > 95.5 µM | 
COC1OC2COC(c3ccccc3)OC2C2OC(=S)OC12 (configuration not stated) |  |  | inactive
CC(C)(C)N=c1n(C(C)(C)C)oc(=O)n1-c1ccccc1 | > 50.1 | > 50.1 µM | 
C/C([O-])=c1\c(C)nn2ccc[n+]12 | > 309 | > 309 µM | 
O=C(NCCO)c1cc2c(cn1)[nH]c1ccccc12 |  |  | inactive
O=C1/C(=C/c2cccc(F)c2)Cc2ccccc21 | > 30.2 | > 30.2 µM | 
C=C1CC(C)(COc2ccc3c(C)cc(=O)oc3c2)OC1=O (configuration not stated) | > 20 | 0.501 µM | 
CCS(=O)(=O)c1c2cc(OC)ccc2nc2ccc(OC)cc12 | > 200 | > 200 µM | 
O=C(Sc1ccccc1)C1OC12CCCCC2 (configuration not stated) | > 200 | 13.2 µM | 
COC(=O)C12C3C4C5(C(=O)OC)C(C1C35C(=O)N(C(C)C)C(C)C)C42C(=O)N(C(C)C)C(C)C (configuration not stated) | > 55 | > 55 µM | 

SMILES | EC50 [µM] | IC50 | outcome
BrCc1ccccc1C[P+](c1ccccc1)(c1ccccc1)c1ccccc1 | > 200 | 2.45 µM | 
Cc1nnc(N)nc1/C=C/c1c(O)ccc2ccccc12 | > 200 | 26.3 µM | 
COc1ccc(N=NC(=O)NC(Cc2ccccc2)C(=O)O)cc1 (configuration not stated) | > 200 | 20 µM | 
O=C1c2ccccc2C(=O)c2c1ccc1conc21 |  |  | inactive
O=C(OCc1ccccc1)N1CCNCCNCCN(C(=O)OCc2ccccc2)CCNCC1 | > 200 | 112 µM | 
O=C([O-])c1ccccn1.O=C([O-])c1ccccn1.[Cu+2] | > 200 | 7.76 µM | 
C[C@]1(CI)OC(=O)N2CCC[C@H]21 | > 891 | > 891 µM | 
Cn1c(-c2cccc([N+](=O)[O-])c2)[n+](C)c2ccccc21 | > 200 | 18.6 µM | 
O=C1/C(=C\c2ccccn2)c2ccccc2N1Cc1ccccc1 | > 22.9 | 12.6 µM | 
CCCCCCCCCc1ccc(Oc2ccc3c(c2)-c2nc-3nc3[nH]c(nc4nc(nc5[nH]c(n2)c2ccc(Oc6ccc(CCCCCCCCC)cc6)cc52)-c2cc(Oc5ccc(CCCCCCCCC)cc5)ccc2-4)c2ccc(Oc4ccc(CCCCCCCCC)cc4)cc32)cc1 | > 13.5 | > 13.5 µM | 
O=C1CC2(C[C@@H]3CCCCCCCCC[C@@H](C3)C2)N1 (some centres not stated) | > 200 | 40.7 µM | 
CNC(=S)NNc1ncnc2c1c(-c1ccc(Cl)cc1)cn2-c1ccc(C)cc1 |  |  | inactive
CC1(C)C=[N+]([O-])C(C)(C)N1O | > 200 | > 200 µM | 
CC/C(CC(=O)CCC(=O)Nc1ccc(C)c(C)c1)=N\NC(=O)c1cc2ccccc2cc1O | > 15.8 | 10 µM | 
CC(C)C(=O)CC(c1ccc(Cl)cc1)N1N=C(C(C)C)CC1c1ccc(Cl)cc1 (configuration not stated) |  |  | inactive
CCOC(=O)c1ccc(NC(=O)O/N=C(/Cl)C(C)C)cc1 | > 200 | 10.5 µM | 
CCOC(=O)N1CC(C)=C(C)CN1C(=O)Nc1ccc(Cl)c(Cl)c1 | > 200 | 81.3 µM | 
CC(C)c1ccc(/C=C/c2cc(C(=O)NNC(=O)NC3CCCCC3)nc(=S)[nH]2)cc1 | > 6.17 | > 6.17 µM | 
O=[N+]([O-])c1ccccc1CS(=O)(=O)c1ccccc1 |  |  | inactive
Cc1ccc(S(=O)(=O)n2c3ccc(Br)cc3c3nc4ccccc4nc32)cc1 | > 100 | > 100 µM | 
O=C(Oc1cc(=O)c(OC(=O)c2ccccc2)co1)c1ccccc1 | > 200 | 110 µM | 
